Several values for one entry are separate records, joined by “and”; a condition that tells them apart may be missing. Equal values may be shown once. Read-outs that look alike come from different tables or passages of the source.
Tests used:
Format in all cases: biochemical
human factor XIa = target: T1, human factor XIa (Homo sapiens, UniProt P03951); assay: Direct inhibition of factor XIa, chromogenic substrate S-2366 hydrolysis assay; conditions: for IC50: read-out: IC50 (converted)
T1 construct: purchased Haematologic Technologies (Essex Junction, Vt.); host or cells: human plasma
Protocol: Solvent A consisted of 25 mM n-hexylamine in water containing 0.1% (v/v) formic acid, while solvent B consisted of 25 mM n-hexylamine in acetonitrile-water mixture (3:1 v/v) containing 0.1% (v/v) formic acid. […] The sample was first monitored for absorbance in the range of 190-400 nm and then directly introduced into the mass spectrometer. ESI-MS detection was performed in positive ion mode for which the capillary voltage was 4 kV, cone voltage was 20 V, desolvation temperature was 350° C. and nitrogen gas flow was maintained at 650 L/hr. Mass scans were collected in the range of 1000-2048 amu within 0.25 s and several of these added to enhanced signal-to-noise ratio. Direct Inhibition of Factor XIa. […] After 10 min incubation, 5 μL factor XIa substrate (345 μM) was rapidly added and the residual FXIa activity was measured from the initial rate of increase in absorbance at 405 nm. […] Relative residual FXIa activity at each concentration of the inhibitor was calculated from the ratio of FXIa activity in the presence and absence of the inhibitor. Logistic equation 1 was used to fit the dose-dependence of residual protease activity to obtain the potency (IC50) and efficacy (ΔY) of inhibition.
Direct Inhibition of Factor XIa by Sulfated QAOs was performed as described in Example 1.
The ability of the sulfated inositol analogs to inhibit factor XIa was studied using the in vitro assay described in Example 1. In this assay, the factor XIa enzyme is anticipated to hydrolyze a particular peptide linkage in the corresponding peptide substrate releasing p-nitroaniline which absorbs at wavelength of 405 nm giving a line slope corresponds to the enzyme activity. The line slope of no inhibitor status is considered as a reference slope and it depends on the relative concentrations of factor XIa enzyme and its substrate. Factor XIa enzyme concentration was decided to get appropriate reference slope of approximately 25-35, whereas the substrate concentration was set to be larger than its affinity to factor XIa enzyme under equilibrium condition, Km. In presence of potential factor XIa inhibitor, the enzyme capacity to hydrolyze the designated peptide linkage in the substrate gets diminished or completely abolished depending on the inhibitor concentration and efficacy. […] Such decreased slope reflects a drop in the catalytic enzyme activity of factor XIa.

factor XIIa = target: T2, factor XIIa (Homo sapiens, UniProt P00748); assay: Factor XIIa chromogenic substrate hydrolysis assay
T2 construct: purchased Enzyme Research Laboratories (South Bend, Ind.)
T2 sequence (P00748 373-615 limits assumed): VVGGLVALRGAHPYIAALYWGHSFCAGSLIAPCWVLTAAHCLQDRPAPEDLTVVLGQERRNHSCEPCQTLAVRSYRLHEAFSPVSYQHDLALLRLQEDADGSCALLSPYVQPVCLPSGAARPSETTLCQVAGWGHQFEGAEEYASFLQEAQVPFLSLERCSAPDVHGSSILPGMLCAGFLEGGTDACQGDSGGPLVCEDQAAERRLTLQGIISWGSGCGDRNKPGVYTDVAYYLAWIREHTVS

[1] = target: T3, FXIa catalytic domain (FXIa-CD) (Homo sapiens, UniProt P03951, C500S); assay: Michaelis-Menten kinetics of S-2366 hydrolysis by FXIa catalytic domain
T3 construct: eliminating the bond allows the catalytic domain of FXIa (FXIa-CD) to separate from the heavy chain; made in house; host or cells: HEK-293
Protocol: (§1) Plasma FIX (500 nM) was incubated with human FXIa (3 nM) in 50 mM Hepes buffer, pH 7.4, containing 125 mM NaCl, 5 mM CaCl2, and 0.1 mg/mL bovine serum albumin at 24° C. […] The primary antibody was goat anti-human FIX polyclonal IgG (Enzyme Research Laboratories, South Bend, Tenn.), and the secondary antibody was horseradish peroxidase-conjugated anti-goat IgG. Detection was by chemiluminescence. […] The inhibition profile was determined over a range of inhibitor concentrations to determine the IC50 of the enzyme-inhibitor complex. The KM of the substrate for its enzyme was used to identify the concentration of the substrate to be used for inhibition studies. […] Active site concentrations for preparations of FXIa were determined by titrations with human antithrombin in an S-2366 cleavage assay. The reaction was monitored using a SpectraMax 340 microtiter plate reader (Molecular Devices Corp., Sunnyvale, Calif.) with a reaction volume of 100 μL and path length of 3 mm. Each assay was performed in triplicate. The concentration of S-2366 was measured using an absorption coefficient of 8,266 M-1cm-1 at λ342 nm, while the free p-nitroaniline concentration was calculated using an absorption coefficient of 9,933 M cm^−1 at λ405 nm. The data was fitted using the standard Michaelis-Menten equation to determine the KM and VMAX. Results

thrombin = target: T4, thrombin (Homo sapiens, UniProt P00734); assay: Thrombin chromogenic substrate hydrolysis assay
T4 construct: purchased Haematologic Technologies (Essex Junction, Vt.); host or cells: human plasma
Protocol: as §1
(§2) Inhibition of Proteases of the Coagulation and Digestive Systems by 16S. The inhibition potential of 500 μM SAM (16S, 15S, 13S) against coagulation enzymes including thrombin and factor Xa and digestive enzymes including trypsin and chymotrypsin was evaluated using chromogenic substrate hydrolysis assays reported in the literature.^2,3,6 These assays were performed using substrates appropriate for the enzyme being studied under conditions closest to the physiological condition (37° C. and pH 7.4), except for thrombin, which was performed at 25° C. and pH 7.4. The concentrations of enzymes and substrates in microplate wells, respectively, were: 6 nM and 50 μM for thrombin; 1.09 nM and 125 μM for factor Xa, 2.5 ng/ml and 80 μM for bovine trypsin; and 500 ng/ml and 240 μM for bovine chymotrypsin. The ratio of the proteolytic activity of an enzyme in the presence of the sulfated QAO to that in its absence was used to calculate percent inhibition (%).

factor Xa = target: T5, factor Xa (Homo sapiens, UniProt P00742); assay: Factor Xa chromogenic substrate hydrolysis assay
T5 construct: purchased Haematologic Technologies (Essex Junction, Vt.); host or cells: human plasma
Protocol: as §1, §2

human plasma = assay: Prothrombin time (PT) plasma clotting assay
Protocol: Plasma clotting assays, prothrombin and activated partial thromboplastin time (PT and APTT, respectively), are routinely used to assess the anticoagulation potential of new enzyme inhibitors in an in vitro setting. Whereas PT measures the effect of an inhibitor on the extrinsic pathway of coagulation, APTT measures the effect on the intrinsic pathway.
Prothrombin Time (PT) and Activated Partial Thromboplastin Time (APTT) were assessed as described in Example 1.

T5 sequence (P00742 235-488 limits assumed): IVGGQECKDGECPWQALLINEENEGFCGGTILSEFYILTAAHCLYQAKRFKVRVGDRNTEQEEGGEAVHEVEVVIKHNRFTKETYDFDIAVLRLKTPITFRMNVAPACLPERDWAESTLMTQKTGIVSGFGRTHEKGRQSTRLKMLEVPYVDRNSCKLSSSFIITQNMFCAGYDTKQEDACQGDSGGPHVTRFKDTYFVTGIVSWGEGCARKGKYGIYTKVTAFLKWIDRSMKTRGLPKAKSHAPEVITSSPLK
T5 sequence (P00742 41-179 partner limits assumed): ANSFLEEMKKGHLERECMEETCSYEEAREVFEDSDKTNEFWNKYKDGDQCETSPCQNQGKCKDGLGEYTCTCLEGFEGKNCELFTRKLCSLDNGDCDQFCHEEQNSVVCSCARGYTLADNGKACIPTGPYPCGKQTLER
T1 sequence (P03951 19-387 limits assumed): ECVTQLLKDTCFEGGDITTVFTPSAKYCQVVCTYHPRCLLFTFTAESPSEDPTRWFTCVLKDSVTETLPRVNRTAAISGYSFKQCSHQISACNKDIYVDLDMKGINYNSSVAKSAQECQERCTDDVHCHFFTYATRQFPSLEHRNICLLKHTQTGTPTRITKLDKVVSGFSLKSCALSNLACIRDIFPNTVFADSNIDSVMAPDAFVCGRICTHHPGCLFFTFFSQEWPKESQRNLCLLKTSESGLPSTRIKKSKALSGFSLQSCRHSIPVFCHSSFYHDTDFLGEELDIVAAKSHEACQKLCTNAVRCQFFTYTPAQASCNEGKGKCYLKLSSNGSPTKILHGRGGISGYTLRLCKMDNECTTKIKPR
T1 sequence (P03951 388-625 limits assumed): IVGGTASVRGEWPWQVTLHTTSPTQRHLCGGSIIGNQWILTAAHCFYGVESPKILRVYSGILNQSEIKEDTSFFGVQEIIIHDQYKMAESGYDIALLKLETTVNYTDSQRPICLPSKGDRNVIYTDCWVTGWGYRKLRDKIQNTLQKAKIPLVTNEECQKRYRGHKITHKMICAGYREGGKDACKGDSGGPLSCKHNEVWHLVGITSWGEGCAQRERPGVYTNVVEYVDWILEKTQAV
T3 sequence (P03951 388-625 C500S): as the sequence (P03951 388-625 limits assumed) above, with C113S counted along it

O=C(OC[C@H]1O[C@@H](OC(=O)c2cc(OS(=O)(=O)O)c(O)c(OS(=O)(=O)O)c2)[C@H](OC(=O)c2cc(OS(=O)(=O)O)c(O)c(OS(=O)(=O)O)c2)[C@@H](OC(=O)c2cc(OS(=O)(=O)O)c(O)c(OS(=O)(=O)O)c2)[C@@H]1OC(=O)c1cc(OS(=O)(=O)O)c(O)c(OS(=O)(=O)O)c1)c1cc(OS(=O)(=O)O)c(O)c(OS(=O)(=O)O)c1 [SPGG, Sulfated Pentagalloylglucoside]
efficacy of FXIa inhibition (human factor XIa; chromogenic substrate): ~100% and 97%
ΔY (human factor XIa; efficacy of inhibition): 97.1 ± 3.2
HS (Hill slope) (human factor XIa; pH 7.4, 37° C.): 1.3 and 1.3 ± 0.1
IC50 (human factor XIa; pH 7.4, 37° C., S-2366): 0.689 µM
IC50 (human factor XIa; translated with average molecular weight 2178 g/mol): ~0.55 µM and 0.551 µM
HS (factor XIIa): 3.0 ± 1.8
IC50 (factor XIIa): 147 µM
ΔY (factor XIIa): 55.7 ± 5.9
selectivity over factor XIIa (factor XIIa; FXIa vs factor XIIa): 200 fold
decrease in VMAX ([1]; SPGG 0 to 5.0 μg/mL): ~5 fold
VMAX ([1]; [SPGG] 0.005 μg/mL): 87.0 ± 2.2 mAU/min
VMAX ([1]; [SPGG] 0.5 μg/mL): 53.9 ± 1.4 mAU/min
VMAX ([1]; [SPGG] 5.0 μg/mL): 22.6 mAU/min and 22.6 ± 1.4 mAU/min
HS (thrombin): 0.5 ± 0.1
IC50 (thrombin): 700 µM
ΔY (thrombin): 83 ± 10
selectivity over thrombin (thrombin; FXIa vs thrombin): 1016 fold
HS (factor Xa): 0.8 ± 0.2
IC50 (factor Xa): 153 µM
ΔY (factor Xa): 101.9 ± 3.5
selectivity over factor Xa (factor Xa; FXIa vs factor Xa): 221 fold
concentration for 2-fold increase in PT (human plasma): 298 µg/mL

— patent US9758459B2, “Allosteric modulators of factor XIa as anticoagulant agents” (VIRGINIA COMMONWEALTH UNIVERSITY, priority 2012, dated 2017)
